Values of other authors, collected in patent publication US20220346434A1, “ORAL COMPOSITIONS AND METHODS OF MANUFACTURE” (NICOVENTURES TRADING LIMITED, priority 2021, published 2022).

Tests used:
[1] = for solubility in water / aqueous environment: water or aqueous environment (e.g., saliva)
[2] = converts via isomerization into trans-bixin (β-bixin)

| solubility in water / aqueous environment [1] | solubility in fats and alcohols ([1]; fats and alcohols) | chemical stability when isolated [2] | SMILES |
| --- | --- | --- | --- |
| water soluble | – | – | CC(/C=C/C=C(C)/C=C/C(=O)O)=C\C=C\C=C(C)\C=C\C=C(C)\C=C\C(=O)O (stereo in doubt) [norbixin, (2E,4E,6E,8E,10E,12E,14E,16E,18E)-4,8,13,17-tetramethylicosa-2,4,6,8,10,12,14,16,18-nonaenedioic acid] |
| insoluble in water | soluble in fats and alcohols | chemically unstable when isolated | COC(=O)/C=C/C(C)=C\C=C\C(C)=C\C=C\C=C(C)\C=C\C=C(C)\C=C\C(=O)O [bixin] |

| SMILES | solubility in water / aqueous environment [1] | solubility in fats and alcohols ([1]; fats and alcohols) | chemical stability when isolated [2] |
| --- | --- | --- | --- |
| C=C(C)[C@@H]1CCC(C)=C[C@H]1c1c(O)cc(CCCCC)cc1O [CBD, cannabidiol, reference compound] | insoluble in an aqueous environment | – | – |
